The values that follow come from paper PMC10616807, “3′-O-β-Glucosyl-4′,5′-didehydro-5′-deoxyadenosine Is a Natural Product of the Nucleocidin Producers Streptomyces virens and Streptomyces calvus” (Journal of Natural Products, 2023).

What is called Km is the substrate concentration at which the rate is half of its maximum.

This assay concerns T1, NucGT.
T1 construct: glucosyltransferase enzyme
The experiment in a line: HPLC product assay at […] nm, initial rates, Michaelis-Menten fit. It counts as biochemical, Streptomyces calvus. The note with it: 17.7 mM UDP-glucose (saturating), 100 mM MgCl2, 50 mM Tris-HCl pH 7.8, 37 °C.

Regarding `Nc1ncnc2c1ncn2[C@@H]1O[C@H](CO)[C@@H](O)[C@H]1O` [adenosine], the Km is 487 ± 53 µM. Then `C=C1O[C@@H](n2cnc3c(N)ncnc32)[C@H](O)[C@@H]1O` [compound 12, 4′,5′-didehydro-5′-deoxyadenosine], with 365 ± 6 µM.
